According to US20100173900A1, “Strobilurins for Increasing the Resistance of Plants to Abiotic Stress” (BASF SE, priority 2008, published 2010):

Key:
corn plants [1] = experiment: Corn behavior under freeze conditions (dead plants); assay type: in vivo; conditions: seed treatment 5 g a.s./100 kg seed, 3 h at −5 ° C. ten or eleven days after sowing, counted one day after freeze exposure
Procedure: Exposure times and temperatures were selected to show sufficient damage to the plants so that treatment differences could be observed.
Corn seeds were treated with pyraclostrobin (5 g of active substance per 100 kg seed) or with azoxystrobin (5 g of active substance per 100 kg seed). The treatment was effected by means of a HEGE 11 seed treatment apparatus. One day after the treatment, the seeds were sown into pots with sandy loam soil. One part of the corn plants was exposed for 3 h to −5 ° C. ten days after sowing, and the other plants eleven days after sowing. In each case, the number of dead plants was counted one day after the freeze exposure. The results are compiled as mean percentage values (relative to 100% of living plants before exposure to freezing temperatures) in table 3 below.

cotton plants = experiment: Cotton behavior under freeze conditions (dead plants); assay type: in vivo; conditions: 4 h at −5° C. in BBCH growth stage 10, counted three days after freeze exposure
Procedure: Cotton seeds were treated either with pyraclostrobin (20 g of active substance per 100 kg seed) or with azoxystrobin (19 g of active substance per 100 kg seed). The treatment was effected by means of a HEGE 11 seed treatment apparatus. After the treatment, the seeds were sown into pots. When the cotton plants were in the BBCH growth stage 10, they were exposed for 4 h to −5° C. Three days after the freeze exposure, the number of dead plants was counted. The results are compiled as mean percentage values (relative to 100% of living plants before exposure to freezing temperatures) in table 8 below.

corn plants [2] = experiment: Emergence behavior of corn after seed treatment, cold and variable temperatures; assay type: in vivo; conditions: seed treatment 5 g a.s./100 kg seed, 7 days at 10° C., 4 days at 24° C., then 10° C.
Procedure: (§1) The emergence behavior of corn plants the seeds of which had been treated with pyraclostrobin and which were exposed after sowing to cold and variable temperatures was studied following the guidelines for germination testing according to the Association of Official Seed Analysts (AOSA, 2005). For this purpose, corn seeds were treated with pyraclostrobin (5 g active substance per 100 kg seed). The treatment was effected by means of a HEGE 11 seed treatment apparatus. After the treatment, the seeds were sown into sand trays (2×100 seeds per tray). The sand trays were placed in an incubator and submitted to following temperature regimen: 7 days at 10° C.-4 days at 24° C.-then 10 ° C. 9, 10 and 29 days after sowing (=DAP=days after planting), the number of seeds which had given rise to plants was counted. The results are compiled as mean values in table 1. A value of 100% means that all sown seeds have given rise to plants.

corn plants [3] = experiment: Plant height (stem length) and root length of corn, cold and variable temperatures; assay type: in vivo; conditions: seed treatment 5 g a.s./100 kg seed, cold/variable temperature regimen of example 1, 23 days after sowing
Procedure: as §1
23 days after sowing (see example 1) the stem length (=length from the soil line to the meristem) and the root length of the plants was measured. The results are compiled as mean values in table 2 below.

sugar beet plants [4] = experiment: Emergence behavior of sugar beet at cold temperature; assay type: in vivo; conditions: seed treatment 30 g a.s./100 kg seed, kept at 10° C.
Procedure: The emergence behavior of sugar beet plants the seeds of which had been treated with pyraclostrobin and which were exposed after sowing to cold temperatures was studied following the guidelines for germination testing according to the Association of Official Seed Analysts (AOSA, 2005). For this purpose, sugar beet seeds were treated with pyraclostrobin (30 g active substance per 100 kg seed). The treatment was effected by means of a HEGE 11 seed treatment apparatus. After the treatment, the seeds were sown into pots with a sandy loam soil/sand mixture (2:1 v/v; 2 seeds per pot). The pots were placed in an incubator and kept at 10° C. 13, 15, 16, 17 and 20 days after sowing (=DAP=days after planting), the number of seeds which had given rise to plants was counted. The results are compiled as mean values in table 4. A value of 100% means that all sown seeds have given rise to plants.

sugar beet plants [5] = experiment: Sugar beet behavior under freeze conditions (dead plants); assay type: in vivo; conditions: seed treatment 30 g a.s./100 kg seed
Procedure: Sugar beet seeds were treated with pyraclostrobin (30 g of active substance per 100 kg seed). The treatment was effected by means of a HEGE 11 seed treatment apparatus. After the treatment, the seeds were sown into pots with a sandy loam soil/sand mixture (2:1 v/v; 2 seeds per pot). One part of the sugar beet plants was exposed for 3 h to −5° C. when they were in the BBCH growth stage 10, and the other plants when they were in the BBCH growth stage 11. In each case, the number of dead plants was counted three days after the freeze exposure. The results are compiled as mean percentage values (relative to 100% of living plants before exposure to freezing temperatures) in table 5 below.

soybean plants = experiment: Soybean behavior under freeze conditions (dead plants); assay type: in vivo; conditions: seed treatment 5 g a.s./100 kg seed, 3.5 h at −7° C. in BBCH growth stage 9, counted three days after freeze exposure
Procedure: (§2) Soybean seeds were treated with pyraclostrobin (5 g of active substance per 100 kg seed). The treatment was effected by means of a HEGE 11 seed treatment apparatus. After the treatment, the seeds were sown into pots. When the soybean plants were in the BBCH growth stage 9, they were exposed for 3.5 h to −7° C. Three days after the freeze exposure, the number of dead plants was counted. The results are compiled as mean percentage values (relative to 100% of living plants before exposure to freezing temperatures) in table 6 below.

spring wheat plants = experiment: Spring wheat behavior under freeze conditions (dead plants); assay type: in vivo; conditions: seed treatment 5 g a.s./100 kg seed, 2 h at −10° C. in BBCH growth stage 11, counted three days after freeze exposure
Procedure: as §2, with “Spring wheat” for “Soybean”, “spring wheat” for “soybean”, “11,” for “9,”, “2” for “3.5”, “−10°” for “−7°”, “7” for “6”

canola plants = experiment: Canola behavior under freeze conditions (dead plants); assay type: in vivo, canola (oilseed rape); conditions: seed treatment 10 g a.s./100 kg seed, 1 h at −10° C. in BBCH growth stage 10, counted three days after freeze exposure
Procedure: Canola (oilseed rape) seeds were treated either with pyraclostrobin (10 g of active substance per 100 kg seed) or with trifloxystrobin (10 g of active substance per 100 kg seed). The treatment was effected by means of a HEGE 11 seed treatment apparatus. After the treatment, the seeds were sown into pots. When the canola plants were in the BBCH growth stage 10, they were exposed for 1 h to −10° C. Three days after the freeze exposure, the number of dead plants was counted. The results are compiled as mean percentage values (relative to 100% of living plants before exposure to freezing temperatures) in table 9 below.

corn plants [6] = experiment: Corn field trial, Burrus Seed Farms; assay type: in vivo; conditions: 5 g a.s./100 kg seed in addition to Maxim XL and Apron XL, 35 DAP
Procedure: For avoiding fungal stress which could give misleading test results especially under cold temperature, all corn seeds were treated with Maxim XL (fludioxonil; 3.5 g of active substance per 100 kg seed) and Apron XL (mefenoxam; 1 g of active substance per 100 kg seed). A part of the seeds was additionally treated with pyraclostrobin (5 g of active substance per 100 kg seed). The treatment was effected by means of a HEGE 11 seed treatment apparatus. On Sep. 26, 2007, the seeds were sown in Burrus Seed Farms, Illinois, USA. 35 days after sowing (=DAP; days after planting), the number of intact, injured and dead plants was assessed. The results are compiled as mean percentage values (relative to total number of plants=100%) in table 10 below.

corn plants [7] = experiment: Corn field trial under frost conditions, Beaver Crossing; assay type: in vivo; conditions: 5 g a.s./100 kg seed in addition to Maxim XL and Apron XL
Procedure: For avoiding fungal stress which could give misleading test results especially under cold temperature, all corn seeds were treated with Maxim XL (fludioxonil; 3.5 g of active substance per 100 kg seed) and Apron XL (mefenoxam; 1 g of active substance per 100 kg seed). A part of the seeds was additionally treated with pyraclostrobin (5 g of active substance per 100 kg seed). The treatment was effected by means of a HEGE 11 seed treatment apparatus. The seeds were sown every 5 days starting from Sep. 6, 2007 in 1.75″ deep on clean tilled soil in Beaver Crossing, NE, USA. Frost occurred on Oct. 22/23, 2007 (−0.1° C. for 1 h), Oct. 23/24 (−0.1° C. for 1 h), 2007 and Oct. 24/25, 2007 (0° C. for 1 h, −1.1° C. for 1.5 h and 0° C. for 1 h). 47 days after sowing (=DAP; days after planting), the number emerged plants and their height was assessed. 50 DAP, the extent of dead tissue was assessed. The results are compiled as mean values in table 11 below.

SMILES: CO/C=C(/C(=O)OC)c1ccccc1Oc1cc(Oc2ccccc2C#N)ncn1 [azoxystrobin]
- Dead plants (corn plants [1]): 31%
- Dead plants (cotton plants; seed treatment 19 g a.s./100 kg seed): 24%

SMILES: COC(=O)N(OC)c1ccccc1COc1ccn(-c2ccc(Cl)cc2)n1 [pyraclostrobin]
- Emergence (corn plants [2]; 9 DAP): 81%
- Emergence (corn plants [2]; 10 DAP): 97%
- Emergence (corn plants [2]; 29 DAP): 100%
- Root length (corn plants [3]): 13.3 cm
- Stem length (corn plants [3]): 11.2 cm
- Dead plants (corn plants [1]): 36%
- Emergence (sugar beet plants [4]; 13 DAP): 23%
- Emergence (sugar beet plants [4]; 15 DAP): 45%
- Emergence (sugar beet plants [4]; 16 DAP): 57%
- Emergence (sugar beet plants [4]; 17 DAP): 73%
- Emergence (sugar beet plants [4]; 20 DAP): 90%
- Dead plants (sugar beet plants [5]; 3 h at −5° C. in BBCH growth stage 10, counted three days after freeze exposure): 12%
- Dead plants (sugar beet plants [5]; 3 h at −5° C. in BBCH growth stage 11, counted three days after freeze exposure): 17%
- Dead plants (soybean plants): 18%
- Dead plants (spring wheat plants): 18%
- Dead plants (cotton plants; seed treatment 20 g a.s./100 kg seed): 17%
- Dead plants (canola plants): 40%
- Dead plants (corn plants [6]): 29%
- Plants with injury (corn plants [6]): 35%
- Plants with no injury (corn plants [6]): 34%
- No. of plants emerged (corn plants [7]; 47 DAP): 19
- Plant height (corn plants [7]; 47 DAP): 1.25 inches
- Dead tissue (corn plants [7]; 50 DAP): 63%

SMILES: CON=C(C(=O)OC)c1ccccc1CON=C(C)c1cccc(C(F)(F)F)c1 [trifloxystrobin]
- Dead plants (canola plants): 42%
